# Results: US10555987B2, “GHRH agonists for the treatment of ischemic disorders” (UNIVERSITY OF MIAMI, priority 2012, dated 2020)
# “Also recorded” adds a separate entry of the source. Non-standard residues stand in square brackets, D forms with d. Residues, ends and D or L forms follow the SMILES beside them. *: point of attachment. Phe(F5) = N[C@@H](Cc1c(F)c(F)c(F)c(F)c1F)C(=O)O; Desaminotyrosyl = O=C(CCc1ccc(O)cc1)*; NMeY = CN[C@@H](Cc1ccc(O)cc1)C(=O)O; Agmatine = N=C(N)NCCCCN*; Nle = CCCC[C@H](N)C(=O)O; Orn = NCCC[C@H](N)C(=O)O; Abu = CC[C@H](N)C(=O)O; GABA = NCCCC(=O)O
# Assays:
# [1] = system: myocardial infarction (Fisher-344 rats); experiment: Immunostaining of heart tissue (pH3, c-kit, arterioles), rat MI model (Example 13); type: in vivo; settings: for c-kit (positive cells in the heart) / phospho H3 (positive cells in the heart): 50 μg/kg s.c. twice daily for 4 weeks, mean ± SEM; for number of arterioles: isolectin / SMA22a co-staining of heart sections
# Description: Myocardial infarction (MI) was induced by permanent ligation of the left coronary artery in female 6-month-old Fisher-344 rats. Animals were randomly assigned to receive placebo (DMSO+propylene glycol) or one of the GHRH-agonists (JI-38, MR-356/P-20356, MR-409/P-27409, all 50 μg/kg), starting 4 weeks post-MI. All treatment was given subcutaneously twice daily for 4 weeks.
# Paraffin sections were deparaffinized and rehydrated by immersion in xylene followed by a graded series of ethanol. Antigen retrieval was performed by a heat-induced method with citrate buffer (Dako, Carpinteria, Calif.). After blocking with 10% normal donkey serum, sections were incubated with a primary antibody at 37° C. for 1 hour, followed by application of secondary antibody. Omission of the primary antibodies on parallel sections was used as negative control. Nuclei were counterstained with DAPI (Invitrogen, Carlsbad, Calif.). The total numbers of positively-stained cells (c-kit, CD45, phospho-histone H3 [pH3]) were quantified per slide to calculate the number of cells per section on each sample. Morphometric analysis was performed using Adobe Photoshop CS3 (San Jose, Calif.).
# Heart sections were co-stained with isolectin (endothelial cell marker) and vascular smooth muscle (SMA22a) to identify arterioles which play a crucial role in cardiac repair. […] An inverse correlation between number of arterioles and infarct size was observed (FIG. 5C).
# GH release = experiment: GH releasing potency in vivo, intravenous administration (Example 14, Table 13); parameters: species or system rat; settings: i.v.; for Serum GH level at selected time after injection (ng/ml), 0 min / Serum GH level at selected time after injection (ng/ml), 5 min / Serum GH level at selected time after injection (ng/ml), 15 min: dose 1 μg/kg, mean ± SEM
# Method in brief: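 Potency is expressed relative to GHRH(1-29)NH2 and JI-38 (each = 1), via equivalent GHRH(1-29)NH2 dose read from a standard curve. Peptides in 5% mannitol given i.v. or s.c. to anaesthetised male Sprague-Dawley rats (200-250 g); serum GH measured by ELISA at selected times.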
# [2] = system: myocardial infarction (Fischer 344 rats); experiment: Echocardiography in rat MI model, treatment from 2 hours post-surgery (Example 14); type: in vivo; settings: echocardiographic measurements at day 2 post-MI
# Description: (§1) MI was induced in female 6-month-old Fischer 344 rats by permanent ligation of left ventricular (LV) anterior descending coronary artery. Animals were randomly assigned to receive placebo or one of the following GHRH agonists (MR-356, MR-361, MR-367, MR-403, MR-404, MR-409 and MR-502) starting 2 hours post-surgery. All treatment (50 μg/kg) was given subcutaneously twice daily for 4 weeks. The Institutional Animal Care and Use committee of the University of Miami approved all protocols and experimental procedures.
# Longitudinal evaluation of LV remodeling was obtained by echocardiographic measurements between baseline and 4 weeks following MI. Echocardiographic assessments were performed in anesthetized rats (1-2% isoflurane inhalation) using a Vevo-770 echocardiogram (Visual Sonics Inc., Toronto, Ontario, Canada) equipped with 25 MHz transducer. Cardiac dimensions were recorded from M-mode images using averaged measurements from 3 to 5 consecutive cardiac cycles. LV end-diastolic and end-systolic volumes and ejection fraction (EF) were calculated from bi-dimensional long-axis parasternal views taken through the infarcted area. All images were analyzed using Vevo 770 3.0.0 software (Visual Sonics).
# [3] = system: myocardial infarction (Fischer 344 rats); experiment: Morphometric analysis, percentage of infarcted myocardium (Example 14); type: in vivo, rat; settings: vs. placebo, FIG. 8
# Description: as §1
# Slides were prepared with H&E and Masson's trichrome stain to assess cardiac structure and the presence and extent of myocardial scar, respectively. The percentage of infarcted myocardium was calculated.
# GHRH receptor = target: T1, GHRH receptor (Homo sapiens, UniProt Q02643); experiment: GHRH receptor binding, competition with 125I-labeled JV-1-42, human pituitary membrane homogenates (Table 5); parameters: Normal human pituitaries were purchased from the National Hormone and Peptide Program; tissue National Hormone and Peptide Program (A.F. Parlow, Harbor-UCLA Medical Center, Torrance, Calif.); host or cells: normal human pituitary, membrane fraction; settings: for Relative affinity (Binding potency) vs GHRH: GHRH(1-29) = 1, Table 5; for Relative affinity (Binding potency) vs JI-38: JI-38 = 1, Table 5
# T1 sequence (Q02643 23-423): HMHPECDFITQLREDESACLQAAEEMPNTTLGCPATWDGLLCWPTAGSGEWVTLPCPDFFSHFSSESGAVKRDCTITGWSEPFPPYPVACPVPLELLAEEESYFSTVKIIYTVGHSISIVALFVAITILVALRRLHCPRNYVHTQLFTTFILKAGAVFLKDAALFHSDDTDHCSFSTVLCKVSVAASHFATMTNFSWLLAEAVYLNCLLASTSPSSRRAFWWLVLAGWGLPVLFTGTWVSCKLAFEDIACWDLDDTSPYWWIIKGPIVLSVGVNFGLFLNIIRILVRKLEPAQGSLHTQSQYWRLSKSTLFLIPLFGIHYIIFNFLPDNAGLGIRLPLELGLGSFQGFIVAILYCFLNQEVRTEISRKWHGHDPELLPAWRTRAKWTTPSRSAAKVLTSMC
# Description: Normal human pituitaries were purchased from the National Hormone and Peptide Program (A.F. Parlow, Los Angeles, County Harbor-UCLA Medical Center, Torrance, Calif.). Briefly, in competitive binding analysis, ^125I-labeled JV-1-42 ([…]) was displaced by GHRH agonists at 10^−6 to 10^−12 M.
# The final binding affinities were expressed as IC50 values and were calculated by using the LIGAND PC computerized curve-fitting program of Munson and Rodbard as modified by McPherson.
Compound,c-kit (positive cells in the heart) [1],phospho H3 (positive cells in the heart) [1],number of arterioles [1],"Relative potency, 5 min (GH release; 5 min, JI-38 = 1)","Relative potency, 15 min (GH release; 15 min, JI-38 = 1)","Serum GH level at selected time after injection (ng/ml), 0 min (GH release) [ng/mL]","Serum GH level at selected time after injection (ng/ml), 5 min (GH release; 5 min) [ng/mL]","Serum GH level at selected time after injection (ng/ml), 15 min (GH release; 15 min) [ng/mL]",EF at day 2 post-MI [2],infarct size (MI %) [3],"IC50 (GHRH receptor; 125I-JV-1-42, human pituitary membranes, Table 5) [nM]",Relative affinity (Binding potency) vs GHRH (GHRH receptor),Relative affinity (Binding potency) vs JI-38 (GHRH receptor),GH-releasing potency after intravenous administration (in words) (GH release),infarct size (MI %) ([3]; listed as MR-409)
"CCCC[C@H](NC(=O)[C@@H](NC(=O)[C@H](CC(=O)O)NC(=O)[C@H](CCC(N)=O)NC(=O)[C@H](CC(C)C)NC(=O)[C@H](CC(C)C)NC(=O)[C@H](CCCN)NC(=O)[C@H](CCCNC(=N)N)NC(=O)[C@H](C)NC(=O)[C@H](CO)NC(=O)[C@H](CC(C)C)NC(=O)[C@H](CCC(N)=O)NC(=O)[C@H](CC)NC(=O)[C@H](CC(C)C)NC(=O)[C@@H](NC(=O)[C@H](CCCN)NC(=O)[C@H](CCCNC(=N)N)NC(=O)[C@H](Cc1ccc(O)cc1)NC(=O)[C@H](CO)NC(=O)[C@H](CCC(N)=O)NC(=O)[C@@H](NC(=O)[C@H](Cc1ccccc1)NC(=O)[C@@H](NC(=O)[C@H](C)NC(=O)[C@H](CC(=O)O)NC(=O)[C@H](C)NC(=O)CCc1ccc(O)cc1)[C@@H](C)CC)[C@@H](C)O)C(C)C)[C@@H](C)CC)C(=O)N[C@@H](CC(=O)O)C(=O)NCCCCNC(=N)N [JI-38, [Dat^1, Gln^8, Orn^12,21, Abu^15, Nle^27, Asp^28, Agm^29]hGHRH(1-29)NH2, reference compound] (Desaminotyrosyl-ADAIFTQSYR[Orn]VL[Abu]QLSAR[Orn]LLQDI[Nle]D-Agmatine)",53 ± 6.7,71 ± 9.2,significantly increased,1,1,48.0 ± 10.4,538 ± 58.3,198 ± 18.1,slightly better preserved,significantly attenuated; also recorded: substantial reductions,1.71,2.4,1,–,–
"CCCC[C@H](NC(=O)[C@@H](NC(=O)[C@H](CC(=O)O)NC(=O)[C@H](CCC(N)=O)NC(=O)[C@H](CC(C)C)NC(=O)[C@H](CC(C)C)NC(=O)[C@H](CCCN)NC(=O)[C@H](CCCNC(=N)N)NC(=O)[C@H](C)NC(=O)[C@H](CO)NC(=O)[C@H](CC(C)C)NC(=O)[C@H](CCC(N)=O)NC(=O)[C@H](CC)NC(=O)[C@H](CC(C)C)NC(=O)[C@@H](NC(=O)[C@H](CCCN)NC(=O)[C@H](CCCNC(=N)N)NC(=O)[C@H](Cc1ccc(O)cc1)NC(=O)[C@H](CO)NC(=O)[C@H](CCC(N)=O)NC(=O)[C@@H](NC(=O)[C@H](Cc1ccccc1)NC(=O)[C@@H](NC(=O)[C@H](C)NC(=O)[C@H](CC(=O)O)NC(=O)[C@@H](C)NC(=O)[C@H](Cc1ccc(O)cc1)NC)[C@@H](C)CC)[C@@H](C)O)C(C)C)[C@@H](C)CC)C(=O)N[C@@H](CC(=O)O)C(=O)NCCCCNC(=N)N [Peptide P-20361, [N—Me-Tyr^1, D-Ala^2, Gln^8, Orn^12, Abu^15, Orn^21, Nle^27, Asp^28, Agm^29] hGHRH (1-29)NH2] (H-[NMeY][dA]DAIFTQSYR[Orn]VL[Abu]QLSAR[Orn]LLQDI[Nle]D-Agmatine)",–,–,–,–,–,–,–,–,slightly better preserved,–,–,–,–,–,–
"CCCC[C@H](NC(=O)[C@@H](NC(=O)[C@H](CC(=O)O)NC(=O)[C@H](CCC(N)=O)NC(=O)[C@H](CC(C)C)NC(=O)[C@H](CC(C)C)NC(=O)[C@H](CCCN)NC(=O)[C@H](CCCNC(=N)N)NC(=O)[C@H](C)NC(=O)[C@H](CO)NC(=O)[C@H](CC(C)C)NC(=O)[C@H](CCC(N)=O)NC(=O)[C@H](CC)NC(=O)[C@H](CC(C)C)NC(=O)[C@@H](NC(=O)[C@H](CCCN)NC(=O)[C@H](CCCNC(=N)N)NC(=O)[C@H](Cc1ccc(O)cc1)NC(=O)[C@H](CO)NC(=O)[C@H](CC(N)=O)NC(=O)[C@@H](NC(=O)[C@H](Cc1c(F)c(F)c(F)c(F)c1F)NC(=O)[C@@H](NC(=O)[C@H](C)NC(=O)[C@H](CC(=O)O)NC(=O)[C@@H](C)NC(=O)CCc1ccc(O)cc1)[C@@H](C)CC)[C@@H](C)O)C(C)C)[C@@H](C)CC)C(=O)N[C@@H](CO)C(=O)N[C@@H](CCCNC(=N)N)C(=O)NCCCC(N)=O [Peptide P-25502, [Dat^1, D-Ala^2, Fpa5^6, Orn^12, Abu^15, Orn^21, Nle^27, Gab^30]hGHRH(1-30)NH2] (Desaminotyrosyl-[dA]DAI[Phe(F5)]TNSYR[Orn]VL[Abu]QLSAR[Orn]LLQDI[Nle]SR[GABA]-NH2)",–,–,–,–,–,59.9 ± 15.9,1253 ± 185,575 ± 20.9,–,–,–,58.0,24.4,highest potency for GH release,–
"CCCC[C@H](NC(=O)[C@@H](NC(=O)[C@H](CC(=O)O)NC(=O)[C@H](CCC(N)=O)NC(=O)[C@H](CC(C)C)NC(=O)[C@H](CC(C)C)NC(=O)[C@H](CCCN)NC(=O)[C@H](CCCNC(=N)N)NC(=O)[C@H](C)NC(=O)[C@H](CO)NC(=O)[C@H](CC(C)C)NC(=O)[C@H](CCC(N)=O)NC(=O)[C@H](CC)NC(=O)[C@H](CC(C)C)NC(=O)[C@@H](NC(=O)[C@H](CCCN)NC(=O)[C@H](CCCNC(=N)N)NC(=O)[C@H](Cc1ccc(O)cc1)NC(=O)[C@H](CO)NC(=O)[C@H](CC(N)=O)NC(=O)[C@@H](NC(=O)[C@H](Cc1ccccc1)NC(=O)[C@@H](NC(=O)[C@H](C)NC(=O)[C@H](CC(=O)O)NC(=O)[C@@H](C)NC(=O)[C@H](Cc1ccc(O)cc1)NC)[C@@H](C)CC)[C@@H](C)O)C(C)C)[C@@H](C)CC)C(=O)N[C@@H](CC(=O)O)C(=O)N[C@@H](CCCNC(=N)N)C(=O)NC [Peptide P-27409, [N—Me-Tyr^1, D-Ala^2, Orn^12, Abu^15, Orn^21, Nle^27, Asp^28]hGHRH(1-29)NH—CH3] (H-[NMeY][dA]DAIFTNSYR[Orn]VL[Abu]QLSAR[Orn]LLQDI[Nle]DR-NHMe)",68 ± 5.5,47 ± 5.8,significantly increased,–,–,–,–,–,–,–,–,–,–,–,significantly attenuated; also recorded: substantial reductions
